Measured values taken from PubChem BioAssay (NCI).
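Values below derive from 48-hour exposures of cells grown in 96-well plates, with endpoints linearly interpolated between the two concentrations bracketing the appropriate inhibition level. Definition used: TGI = concentration required for complete inhibition of growth.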

Legend:
Test in all cases: NCI tumour cell line growth inhibition, 48 h
EKVX NSCLC = test system: EKVX NSCLC
HOP-62 NSCLC = test system: HOP-62 NSCLC
NCI-H23 lung = test system: NCI-H23 lung
KM20L2 colon = test system: KM20L2 colon
RXF 393 renal = test system: RXF 393 renal
RPMI-8226 leukemia = test system: RPMI-8226 leukemia
U251 CNS = test system: U251 CNS
M14 melanoma = test system: M14 melanoma
HOP-18 NSCLC = test system: HOP-18 NSCLC
DLD-1 colon = test system: DLD-1 colon
LOX IMVI melanoma = test system: LOX IMVI melanoma
HL-60(TB) leukemia = test system: HL-60(TB) leukemia
SNB-78 CNS = test system: SNB-78 CNS
SR leukemia = test system: SR leukemia
M19-MEL melanoma = test system: M19-MEL melanoma
NCI-H522 lung = test system: NCI-H522 lung
OVCAR-5 ovarian = test system: OVCAR-5 ovarian
NCI-H460 lung = test system: NCI-H460 lung
KM12 colon = test system: KM12 colon
HT29 colon = test system: HT29 colon
OVCAR-4 ovarian = test system: OVCAR-4 ovarian
ACHN renal = test system: ACHN renal
DMS 114 small cell lung = test system: DMS 114 small cell lung
786-0 renal = test system: 786-0 renal
UACC-257 melanoma = test system: UACC-257 melanoma
OVCAR-8 ovarian = test system: OVCAR-8 ovarian
XF 498 CNS = test system: XF 498 CNS
SNB-75 CNS = test system: SNB-75 CNS
CCRF-CEM leukemia = test system: CCRF-CEM leukemia
OVCAR-3 ovarian = test system: OVCAR-3 ovarian
HCT-116 colon = test system: HCT-116 colon
NCI-H226 lung = test system: NCI-H226 lung
UACC-62 melanoma = test system: UACC-62 melanoma
MOLT-4 leukemia = test system: MOLT-4 leukemia
MALME-3M melanoma = test system: MALME-3M melanoma
TK-10 renal = test system: TK-10 renal
SF-295 CNS = test system: SF-295 CNS
HCT-15 colon = test system: HCT-15 colon
HCC-2998 colon = test system: HCC-2998 colon
UO-31 renal = test system: UO-31 renal
K-562 leukemia = test system: K-562 leukemia
SF-539 CNS = test system: SF-539 CNS
LXFL 529 NSCLC = test system: LXFL 529 NSCLC
A498 renal = test system: A498 renal
SNB-19 CNS = test system: SNB-19 CNS
COLO 205 colon = test system: COLO 205 colon
DMS 273 small cell lung = test system: DMS 273 small cell lung
SK-MEL-2 melanoma = test system: SK-MEL-2 melanoma
SF-268 CNS = test system: SF-268 CNS
SK-OV-3 ovarian = test system: SK-OV-3 ovarian
SN12C renal = test system: SN12C renal
SK-MEL-28 melanoma = test system: SK-MEL-28 melanoma
CAKI-1 renal = test system: CAKI-1 renal
SW-620 colon = test system: SW-620 colon
IGROV1 ovarian = test system: IGROV1 ovarian
HOP-92 NSCLC = test system: HOP-92 NSCLC
RXF-631 renal = test system: RXF-631 renal
A549 NSCLC = test system: A549 NSCLC
SK-MEL-5 melanoma = test system: SK-MEL-5 melanoma

COc1cc(Cl)cc(=O)c(O)c1OC
TGI (EKVX NSCLC): > 91.8 µM
TGI (HOP-62 NSCLC): > 100 µM
TGI (NCI-H23 lung): > 100 µM
TGI (KM20L2 colon): > 100 µM
TGI (RXF 393 renal): > 100 µM
TGI (RPMI-8226 leukemia): > 100 µM
TGI (U251 CNS): > 100 µM
TGI (M14 melanoma): > 100 µM
TGI (HOP-18 NSCLC): > 100 µM
TGI (DLD-1 colon): > 100 µM
TGI (LOX IMVI melanoma): > 100 µM
TGI (HL-60(TB) leukemia): > 80.9 µM
TGI (SNB-78 CNS): > 100 µM
TGI (SR leukemia): > 100 µM
TGI (M19-MEL melanoma): > 100 µM
TGI (NCI-H522 lung): > 64.3 µM
TGI (OVCAR-5 ovarian): > 100 µM
TGI (NCI-H460 lung): > 100 µM
TGI (KM12 colon): > 100 µM
TGI (HT29 colon): > 100 µM
TGI (OVCAR-4 ovarian): > 100 µM
TGI (ACHN renal): > 100 µM
TGI (DMS 114 small cell lung): 67.6 µM
TGI (786-0 renal): > 100 µM
TGI (UACC-257 melanoma): > 100 µM
TGI (OVCAR-8 ovarian): > 100 µM
TGI (XF 498 CNS): > 100 µM
TGI (SNB-75 CNS): > 100 µM
TGI (CCRF-CEM leukemia): > 100 µM
TGI (OVCAR-3 ovarian): > 87.2 µM
TGI (HCT-116 colon): > 100 µM
TGI (NCI-H226 lung): > 87.2 µM
TGI (UACC-62 melanoma): 70.7 µM
TGI (MOLT-4 leukemia): > 100 µM
TGI (MALME-3M melanoma): > 100 µM
TGI (TK-10 renal): > 100 µM
TGI (SF-295 CNS): > 100 µM
TGI (HCT-15 colon): > 100 µM
TGI (HCC-2998 colon): > 100 µM
TGI (UO-31 renal): > 100 µM
TGI (K-562 leukemia): > 100 µM
TGI (SF-539 CNS): > 100 µM
TGI (LXFL 529 NSCLC): > 100 µM
TGI (A498 renal): > 100 µM
TGI (SNB-19 CNS): > 100 µM
TGI (COLO 205 colon): > 81.2 µM
TGI (DMS 273 small cell lung): > 100 µM
TGI (SK-MEL-2 melanoma): > 100 µM
TGI (SF-268 CNS): > 100 µM
TGI (SK-OV-3 ovarian): > 100 µM
TGI (SN12C renal): > 100 µM
TGI (SK-MEL-28 melanoma): > 100 µM

O=C(COc1ccccc1Cl)N1N=C(c2ccc(Cl)cc2)CC1(O)c1ccccc1 (stereo not given)
TGI (HOP-62 NSCLC): > 100 µM
TGI (NCI-H23 lung): > 100 µM
TGI (KM20L2 colon): > 100 µM
TGI (RPMI-8226 leukemia): > 100 µM
TGI (U251 CNS): > 100 µM
TGI (M14 melanoma): > 100 µM
TGI (DLD-1 colon): > 100 µM
TGI (CAKI-1 renal): > 100 µM
TGI (LOX IMVI melanoma): > 100 µM
TGI (HL-60(TB) leukemia): > 100 µM
TGI (SW-620 colon): > 100 µM
TGI (SNB-78 CNS): > 100 µM
TGI (SR leukemia): > 100 µM
TGI (M19-MEL melanoma): > 100 µM
TGI (NCI-H522 lung): > 100 µM
TGI (OVCAR-5 ovarian): > 100 µM
TGI (NCI-H460 lung): > 100 µM
TGI (KM12 colon): > 100 µM
TGI (HT29 colon): > 100 µM
TGI (OVCAR-4 ovarian): > 100 µM
TGI (ACHN renal): > 100 µM
TGI (786-0 renal): > 100 µM
TGI (UACC-257 melanoma): > 100 µM
TGI (OVCAR-8 ovarian): > 100 µM
TGI (XF 498 CNS): > 100 µM
TGI (IGROV1 ovarian): > 100 µM
TGI (SNB-75 CNS): > 100 µM
TGI (OVCAR-3 ovarian): > 100 µM
TGI (HCT-116 colon): > 100 µM
TGI (NCI-H226 lung): > 100 µM
TGI (HOP-92 NSCLC): > 100 µM
TGI (UACC-62 melanoma): > 100 µM
TGI (MOLT-4 leukemia): > 100 µM
TGI (RXF-631 renal): > 100 µM
TGI (MALME-3M melanoma): > 100 µM
TGI (TK-10 renal): > 100 µM
TGI (SF-295 CNS): > 100 µM
TGI (HCT-15 colon): > 100 µM
TGI (HCC-2998 colon): > 100 µM
TGI (UO-31 renal): > 100 µM
TGI (K-562 leukemia): > 100 µM
TGI (SF-539 CNS): > 100 µM
TGI (LXFL 529 NSCLC): > 100 µM
TGI (SNB-19 CNS): > 100 µM
TGI (A549 NSCLC): > 100 µM
TGI (COLO 205 colon): > 100 µM
TGI (DMS 273 small cell lung): > 100 µM
TGI (SK-MEL-2 melanoma): > 100 µM
TGI (SF-268 CNS): > 100 µM
TGI (SK-OV-3 ovarian): > 100 µM
TGI (SN12C renal): > 100 µM
TGI (SK-MEL-28 melanoma): > 100 µM

CCOC(=O)Cc1nc2ccc3c(c2[nH]c1=O)C(=O)c1ccccc1C3=O
TGI (EKVX NSCLC): 28.5 µM
TGI (HOP-62 NSCLC): > 100 µM
TGI (NCI-H23 lung): > 100 µM
TGI (KM20L2 colon): > 100 µM
TGI (RXF 393 renal): 63.1 µM
TGI (RPMI-8226 leukemia): > 100 µM
TGI (U251 CNS): > 100 µM
TGI (M14 melanoma): > 100 µM
TGI (HOP-18 NSCLC): 91.6 µM
TGI (SK-MEL-5 melanoma): > 100 µM
TGI (DLD-1 colon): > 100 µM
TGI (CAKI-1 renal): > 100 µM
TGI (LOX IMVI melanoma): > 100 µM
TGI (SW-620 colon): > 100 µM
TGI (SNB-78 CNS): > 100 µM
TGI (M19-MEL melanoma): > 100 µM
TGI (NCI-H522 lung): > 100 µM
TGI (OVCAR-5 ovarian): > 100 µM
TGI (NCI-H460 lung): > 100 µM
TGI (KM12 colon): > 100 µM
TGI (HT29 colon): > 100 µM
TGI (OVCAR-4 ovarian): > 100 µM
TGI (ACHN renal): > 100 µM
TGI (DMS 114 small cell lung): > 100 µM
TGI (786-0 renal): > 100 µM
TGI (UACC-257 melanoma): > 100 µM
TGI (OVCAR-8 ovarian): > 100 µM
TGI (XF 498 CNS): > 100 µM
TGI (IGROV1 ovarian): > 100 µM
TGI (SNB-75 CNS): > 100 µM
TGI (CCRF-CEM leukemia): > 100 µM
TGI (OVCAR-3 ovarian): > 100 µM
TGI (HCT-116 colon): > 100 µM
TGI (NCI-H226 lung): > 100 µM
TGI (HOP-92 NSCLC): > 100 µM
TGI (UACC-62 melanoma): > 100 µM
TGI (MOLT-4 leukemia): 54.2 µM
TGI (RXF-631 renal): > 100 µM
TGI (MALME-3M melanoma): > 100 µM
TGI (TK-10 renal): > 100 µM
TGI (HCT-15 colon): > 100 µM
TGI (HCC-2998 colon): > 100 µM
TGI (UO-31 renal): > 100 µM
TGI (K-562 leukemia): > 100 µM
TGI (SF-539 CNS): > 100 µM
TGI (LXFL 529 NSCLC): > 100 µM
TGI (A498 renal): > 100 µM
TGI (SNB-19 CNS): > 100 µM
TGI (A549 NSCLC): > 100 µM
TGI (COLO 205 colon): > 100 µM
TGI (DMS 273 small cell lung): > 100 µM
TGI (SK-MEL-2 melanoma): > 100 µM
TGI (SF-268 CNS): > 100 µM
TGI (SK-OV-3 ovarian): > 100 µM
TGI (SN12C renal): > 100 µM
TGI (SK-MEL-28 melanoma): > 100 µM
